Data as given in the CheMixHub ionic liquid set.

Assay: xn = mol fraction of the nth substance listed

CCC(C)O (centres undefined) + CC[n+]1ccn(C)c1.N#C[N-]C#N
100 kPa, x2 = 0
Conditions	viscosity [mPa·s]
298.15 K	3.01
303.15 K	2.55
308.15 K	2.21
313.15 K	1.97
318.15 K	1.79
323.15 K	1.63

CCC(C)O (centres undefined) + CC[n+]1ccn(C)c1.O=S(=O)([O-])C(F)(F)F
Conditions	viscosity [mPa·s]
308.15 K, 101 kPa, x2 = 0	2

O=C([O-])CC(O)(CC(=O)[O-])C(=O)[O-].[Li+].[Li+].[Li+] + CC[n+]1ccn(C)c1.O=S(=O)([O-])O + O
viscosity [mPa·s], 101 kPa
Conditions	293.15 K	298.15 K	303.15 K	308.15 K	313.15 K
x1 = 0.0003639, x2 = 0	1.022	0.927	0.835	0.757	0.691
x1 = 0.0007293, x2 = 0	1.043	0.946	0.854	0.776	0.712
x1 = 0.0008074, x2 = 0.0007287	1.082	1.003	0.885	0.81	0.751
x1 = 0.0008123, x2 = 0.000664	1.069	0.99	0.883	0.811	0.734
x1 = 0.0008236, x2 = 0.0009246	1.112	1.003	0.906	0.825	0.745
x1 = 0.0009579, x2 = 0.0007286	1.09	1.01	0.892	0.817	0.758
x1 = 0.000959, x2 = 0.0006639	1.077	0.996	0.89	0.818	0.741
x1 = 0.001091, x2 = 0	1.063	0.961	0.869	0.793	0.729
x1 = 0.001134, x2 = 0.0009243	1.13	1.017	0.92	0.84	0.761
x1 = 0.001339, x2 = 0.0009241	1.142	1.025	0.929	0.849	0.771
x1 = 0.001445, x2 = 0	1.083	0.974	0.883	0.807	0.745
x1 = 0.001498, x2 = 0.0007282	1.121	1.032	0.914	0.841	0.784
x1 = 0.001582, x2 = 0.0006634	1.113	1.021	0.915	0.845	0.769
x1 = 0.001715, x2 = 0.000728	1.134	1.04	0.923	0.85	0.794
x1 = 0.001743, x2 = 0.0006633	1.122	1.026	0.922	0.852	0.776
x1 = 0.001787, x2 = 0.0009237	1.169	1.042	0.947	0.869	0.791
x1 = 0.001793, x2 = 0	1.102	0.986	0.896	0.821	0.759
x1 = 0.002226, x2 = 0	1.126	1	0.911	0.837	0.777
x1 = 0.002241, x2 = 0.000663	1.15	1.044	0.94	0.871	0.797
x1 = 0.002241, x2 = 0.0007276	1.164	1.059	0.942	0.871	0.817
x1 = 0.002293, x2 = 0.0009233	1.198	1.061	0.967	0.89	0.814
x1 = 0.002592, x2 = 0.0006628	1.17	1.055	0.952	0.884	0.811
x1 = 0.002633, x2 = 0.0007274	1.186	1.073	0.956	0.886	0.833
x1 = 0.002689, x2 = 0.0009229	1.221	1.074	0.981	0.906	0.831
x1 = 0.002748, x2 = 0	1.155	1.016	0.928	0.855	0.797

O=C([O-])CC(O)(CC(=O)[O-])C(=O)[O-].[NH4+].[NH4+].[NH4+] + CC[n+]1ccn(C)c1.O=S(=O)([O-])O + O
viscosity [mPa·s], 101 kPa
Conditions	x1 = 0.0003657, x2 = 0	x1 = 0.0007347, x2 = 0	x1 = 0.001087, x2 = 0	x1 = 0.001443, x2 = 0	x1 = 0.00179, x2 = 0	x1 = 0.002235, x2 = 0	x1 = 0.00271, x2 = 0
293.15 K	1.022	1.043	1.063	1.083	1.102	1.127	1.153
298.15 K	0.923	0.939	0.953	0.965	0.976	0.989	1.002
303.15 K	0.829	0.846	0.859	0.872	0.883	0.897	0.911
308.15 K	0.75	0.768	0.782	0.795	0.807	0.822	0.837
313.15 K	0.684	0.702	0.717	0.731	0.744	0.76	0.776

c1c[nH]cn1 + CC[n+]1ccn(C)c1.[Cl-]
298.2 K, 100 kPa
Conditions	viscosity [mPa·s]
x2 = 0.25	38.7
x2 = 0.5	82.5

CCCCCC[n+]1ccn(C)c1.[Cl-] + CN1CCCC1=O
100 kPa
Conditions	viscosity [mPa·s]
293.15 K, x2 = 0.4223	288
298.15 K, x2 = 0.2211	1042
298.15 K, x2 = 0.3181	467
298.15 K, x2 = 0.5271	92.7
298.15 K, x2 = 0.718	19.13
298.15 K, x2 = 0.8139	8.49
303.15 K, x2 = 0.4223	152
308.15 K, x2 = 0.2211	481
308.15 K, x2 = 0.718	13.69
308.15 K, x2 = 0.8139	6.46
313.15 K, x2 = 0.6327	21.54
313.15 K, x2 = 0.718	11.59
313.15 K, x2 = 0.9083	2.78
323.15 K, x2 = 0.3181	102.2
323.15 K, x2 = 0.4223	54.5
328.15 K, x2 = 0.4223	44.4
328.15 K, x2 = 0.718	7.66
333.15 K, x2 = 0.9083	2.041

CCCCCC(=O)[O-].C[NH+](C)Cc1ccccc1 + CN(C)C=O
viscosity [mPa·s], 101 kPa
Conditions	293.15 K	298.15 K	303.15 K	308.15 K	313.15 K	318.15 K	323.15 K	328.15 K
x1 = 0.005406	0.956	0.916	0.879	0.847	0.818	0.792	0.769	0.748
x1 = 0.008974	0.969	0.927	0.889	0.855	0.825	0.798	0.774	0.752
x1 = 0.01235	0.978	0.934	0.895	0.861	0.83	0.803	0.778	0.755
x1 = 0.01781	1.002	0.955	0.913	0.877	0.844	0.815	0.789	0.765
x1 = 0.01976	1	0.954	0.913	0.877	0.844	0.816	0.79	0.766
x2 = 0.9681	1.042	0.99	0.945	0.905	0.869	0.837	0.809	0.784
x2 = 0.9717	1.03	0.98	0.935	0.896	0.862	0.831	0.803	0.778
x2 = 0.9757	1.02	0.971	0.928	0.89	0.856	0.826	0.799	0.774

CCCCCC[n+]1ccn(C)c1.[Cl-] + CN(C)C=O
101 kPa
Conditions	viscosity [mPa·s]
288.15 K, x2 = 0.2751	230
308.15 K, x2 = 0.6856	9.1

CC[n+]1ccn(CCOC)c1.O=S(=O)([N-]S(=O)(=O)C(F)(F)F)C(F)(F)F + CO
100 kPa
Conditions	viscosity [mPa·s]
288.15 K, x1 = 0.2999	7.19
288.15 K, x1 = 0.5	15.9
288.15 K, x1 = 0.5984	22.75
288.15 K, x1 = 0.7934	37.29
293.15 K, x1 = 1	43.63
298.15 K, x1 = 0.1	1.627
298.15 K, x1 = 0.2999	5.44
303.15 K, x1 = 0.2999	4.8
303.15 K, x1 = 0.5	9.83
303.15 K, x1 = 1	29.33
308.15 K, x1 = 0.1997	2.658
308.15 K, x1 = 0.2999	4.263
308.15 K, x1 = 0.3966	6.33
308.15 K, x1 = 0.5984	12
308.15 K, x1 = 0.7934	18.08
313.15 K, x1 = 0.5984	10.42
313.15 K, x1 = 0.6953	13.27
313.15 K, x1 = 0.7934	15.68
318.15 K, x1 = 0.2999	3.449

C[N+](C)(C)CCC[n+]1ccccc1.N#C[N-]C#N.N#C[N-]C#N + CO
100 kPa
Conditions	viscosity [mPa·s]
293.15 K, x1 = 0.3999	69.9
293.15 K, x1 = 0.8995	950
303.15 K, x1 = 0.5002	78.6
303.15 K, x1 = 0.7003	184
313.15 K, x1 = 0.0999	3.18
313.15 K, x1 = 0.3999	31.9
313.15 K, x1 = 0.5002	53.3
313.15 K, x1 = 0.7998	145
313.15 K, x1 = 1	386
323.15 K, x1 = 0.3002	13.6
323.15 K, x1 = 0.3999	23.6
323.15 K, x1 = 0.5002	38.3
323.15 K, x1 = 0.6001	54.1
333.15 K, x1 = 0.0999	2.54
333.15 K, x1 = 0.2001	6.12
333.15 K, x1 = 0.3999	18.5
333.15 K, x1 = 0.6001	38.5
